“Also recorded” adds a separate entry of the source.
Assays:
c-Src = c-Src (Homo sapiens, UniProt P12931); assay: EGF-induced c-Src activation (Y418 phosphorylation), immunoblotting; assay type: cell-based; conditions: U87/EGFR cells; SU6656 4 μM 30 min before EGF 100 ng/mL 6 h
Description: (§1) Immunofluorescence analyses of endogenous PKM2 or transiently expressed FLAG-PKM1 were performed with the indicated antibodies. […] Immunoblotting analyses were performed with the indicated antibodies. Nuclear PCNA was used as controls for immunoblotting analyses. c: An equal volume of cytosolic and nuclear fractions were prepared from U87/EGFR cells treated with or without EGF (100 ng/mL) for 6 h. Ten microliters of protein from cytosolic and nuclear fractions were used for immunoblotting analyses with the indicated antibodies. d: Nuclear fractions were prepared from U251 cells pretreated with LY290042 (30 μM), SU6656 (4 μM), SP600125 (25 μM), and U0126 (20 μM) for 30 min before EGF (100 ng/mL) for 6 h. Immunoblotting analyses were performed with the indicated antibodies. Nuclear PCNA and cytoplasmic tubulin were used as controls. e: U87/EGFR cells were pretreated with LY290042 (30 μM), SU6656 (4 μM), SP600125 (25 μM), and U0126 (20 μM) for 30 min before EGF (100 ng/mL) for 6 h. Immunoblotting analyses were performed with the indicated antibodies.
(§2) Extraction of proteins with a modified buffer from cultured cells was followed by immunoprecipitation and immunoblotting with corresponding antibodies, as described previously (Lu et al., 1998).

β-catenin = assay: EGF-induced β-catenin Tyr/Y333 phosphorylation, immunoprecipitation and immunoblotting; assay type: cell-based, human
Description: FIG. 2: c-Src phosphorylates β-catenin at Y333 upon EGFR activation. a: U87/EGFR cells were treated with SU6656 (4 μM) or an Abl inhibitor (0.2 μM) for 30 min before EGF treatment for 6 h. b: The indicated cells were treated with or without EGF for 6 h. c: β-catenin was immunoprecipitated from the nuclear fractions of U87/EGFR cells treated with or without EGF for 6 h. d, g: U87/EGFR cells transiently expressing the indicated FLAG-tagged β-catenin proteins were treated with or without EGF for 6 h. e: In vitro kinase assays were performed with purified active c-Src and purified β-catenin proteins. f: Immobilized GST-β-catenin proteins were mixed with purified His-PKM2 proteins in the presence or absence of active c-Src.
(§3) FIG. 16: EGF induces the nuclear translocation of PKM2, c-Src-dependent […] Y333 phosphorylation, and a c-Src-dependent interaction between PKM2 and β-catenin in primary GBM cells. […] Nuclear PCNA and cytoplasmic tubulin were used as controls.

[1] = system: PKM2-β-catenin interaction; assay: EGF-induced association of β-catenin with PKM2 in primary GBM cells (co-IP); assay type: cell-based; conditions: GSC11 and GSC23 human primary GBM cells; SU6656 4 μM 30 min before EGF 100 ng/mL 6 h
Text: as §3

U87/EGFRvIII cells = assay: Intracranial U87/EGFRvIII xenograft, intratumoral SU6656; assay type: in vivo, athymic nude mice
Description: FIG. 19: c-Src inhibition suppresses tumorigenesis and reduces β-catenin Y333 phosphorylation and cyclin D1 expression in tumor tissues. a: U87/EGFRvIII (5×10^5) cells were intracranially injected into athymic nude mice. After 5 d, seven mice were sacrificed to examine tumor growth; the remaining mice, whose tumors were intracranially injected with SU6656 (0.015 mg/kg in 5 μL of DMSO) or DMSO every three days, were sacrificed at day 15. […] C: Immunoblotting analyses of the indicated tumor tissues were performed with the indicated antibodies.
GBM cells (5×10^5) were intracranially injected (in 5 μL of DMEM per mouse), with or without regulation of β-catenin or PKM2 expression, into 4-week-old female athymic nude mice. The intracranial injections were performed, as described in a previous publication (Gomez-Manzano et al., 2006). Seven mice per group in each experiment were included. Animals injected with U87/EGFRvIII or GSC 11 cells were sacrificed 2 weeks or 30 days after glioma cell injection, respectively. The brain of each mouse was harvested, fixed in 4% formaldehyde, and embedded in paraffin. Tumor formation and phenotype were determined by histologic analysis of H & E-stained sections.
For doxycycline induction studies, seven mice were sacrificed 14 days after GBM cell injection to examine tumor growth, whereas the remaining 14 mice in two groups were fed with or without water containing 800 μg/mL doxycycline. The water containing doxycycline was changed every three days. The mice in these two groups were sacrificed at day 30. For the SU6656 treatment studies, seven mice were sacrificed five days after U87/EGFRvIII cell injection to examine tumor growth, whereas the remaining 14 mice in two groups were treated with either DMSO or SU6656. SU6656 (0.015 mg/kg in 5 μL of DMSO) was intracranially injected into the tumor every three days, and the mice in both groups were sacrificed at day 14 after GBM cell injection.

PKM2 = assay: EGF-induced nuclear translocation of PKM2 (cell fractionation, immunoblotting, immunofluorescence); assay type: cell-based, human; conditions: U87/EGFR (and U251) cells; 30 min pretreatment before EGF 100 ng/mL; LY290042 30 μM, SU6656 4 μM, SP600125 25 μM, U0126 20 μM, AG1478 1 μM, cycloheximide 100 μg/mL
Description: Immunoblotting analyses (b, b) were performed with the indicated antibodies. Nuclear PCNA and cytoplasmic tubulin were used as controls. a: The indicated cells were immunostained with an anti-PKM2 antibody.
Immunoblotting and immunoprecipitation analyses were performed with the indicated antibodies. a: Nuclear fractions were prepared from U87/EGFR cells pretreated with LY290042 (30 μM), SU6656 (4 μM), SP600125 (25 μM), and U0126 (20 μM) for 30 min before EGF (100 ng/mL) for 6 h. Nuclear PCNA and cytoplasmic tubulin were used as controls. b: U87/EGFR cells were pretreated with or without U0126 (20 μM) for 30 min before EGF (100 ng/mL) for 6 h. Immunofluorescence analyses were performed with the indicated antibodies. Nuclei were stained with Hoechst 33342 (blue). c: U251 cells were stably transfected with a vector with or without expressing FLAG-ERK2 K52R (left panel) or transiently transfected with vectors expressing MEK1 Q56P and indicated FLAG-tagged ERK2 proteins (right panel). The cells were treated with or without EGF (100 ng/mL) for 6 h, and the total cell lysates and nuclear fractions were prepared. d: FLAG-PKM2 or FLAG-PKM1 was immunoprecipitated with an anti-FLAG antibody from U87/EGFR cells treated with or without EGF (100 ng/mL) for 30 min. e: Bacterially-purified GST-ERK2 immobilized on glutathione agarose beads was mixed with or without purified His-PKM2. GST pull-down analyses were performed. Ten percent of total His-PKM2 was used as an input. f: U87/EGFR cells transfected with vectors expressing the indicated FLAG-tagged ERK proteins were treated with or without EGF (100 ng/mL) for 30 min. g: U87/EGFR cells expressing the indicated FLAG-PKM2 proteins were treated with or without EGF (100 ng/mL) for 30 min.
as §1
Cytosolic and nuclear fractions were prepared. Immunoblotting analyses were performed with the indicated antibodies. b: U87/EGFR cells with depleted endogenous PKM2 and reconstituted expression of RNAi-resistant WT rPKM2 or rPKM2 S37A were treated with or without EGF (100 ng/mL) for 6 h. Total cell lysates (left panel) and nuclear fractions (right panel) were prepared.

ERK1/2 = assay: EGF-induced ERK1/2 phosphorylation, immunoblotting; assay type: cell-based, human; conditions: U87/EGFR cells; AG1478 1 μM or U0126 20 μM 30 min before EGF 6 h
Description: as §1, §2

PKM2 expression = assay: EGF-induced PKM2 upregulation, immunoblotting; assay type: cell-based, human; conditions: U87/EGFR cells; pretreatment before EGF 100 ng/mL 12 h; AG1478 1 μM, cycloheximide 200 μg/mL, Bis-I 2 μM, Go6976 2 μM, NF-κB activation inhibitor II 7 μM, AKT inhibitor 10 μM, TBB 50 μM, U73122 2 μM
Description: FIG. 56: EGFR activation results in upregulation of PKM2 expression. A-D: Immunoblotting analyses were performed with or without the indicated antibodies. A: The indicated cell lines were treated with EGF (100 ng/mL) for 12 h. B: U87 cells were stably transfected with plasmids expressing EGFR or EGFRvIII. […] D: U87/EGFR cells were pretreated with or without cycloheximide (CHX) (200 μg/mL) for 30 min before EGF (100 ng/mL) treatment for 12 h. […] The relative mRNA levels of PKM2 and PKM1 were normalized to the levels of untreated cells and β-actin mRNA. Data represent the mean±SD of three independent experiments.
FIG. 57: EGF increases PKM2 expression in a PKC- and NF-κB-dependent manner. A-D, H: Immunoblotting analyses were performed with the indicated antibodies. […] ChIP assay was performed with an anti-RelA antibody for immunoprecipitation, followed by PCR with PKM promoter-specific primers. F: An oligonucleotide containing the putative WT or mutated NF-κB binding sequence was labeled using [γ-^32P] ATP and T4 polynucleotide kinase. […] Samples were subjected to 5% polyacrylamide gel electrophoresis, and the dried gel was exposed to x-ray film. […] The relative levels of luciferase activity were normalized to the levels of untreated cells and to the levels of luciferase activity of the Renilla control plasmid. Data represent the mean±standard deviation of three independent experiments.
FIG. 58: PKCε downstream from PLCγ1, rather than TAK1, activates IKKβ and subsequently increases PKM2 expression. […] B: U87/EGFR cells were treated with TNFα (10 ng/mL) for the indicated time. C: U87/EGFR cells were treated with or without EGF (100 ng/mL) or TNFα (10 ng/mL) for 4 h. […] HIF1α was immunodepleted from the cell lysates by incubation with an anti-HIF1α antibody, which was followed by a ChIP assay with an anti-FLAG antibody for immunoprecipitation of FLAG-RelA and PCR analysis with PKM promoter-specific primers. […] F: 293T cells were transiently transfected with constitutively active (+) or kinase-dead (−) PKC mutants. […] H, I: 293T cells were transiently transfected with the indicated plasmids.

IKKβ = molecular target: T1, IKKβ (Homo sapiens, UniProt O14920); conditions: small molecules IKKβ inhibitors; values from the cited references; read-out: IC50 (half maximal inhibitory concentration); cited from earlier work
T1 sequence (O14920 1-756): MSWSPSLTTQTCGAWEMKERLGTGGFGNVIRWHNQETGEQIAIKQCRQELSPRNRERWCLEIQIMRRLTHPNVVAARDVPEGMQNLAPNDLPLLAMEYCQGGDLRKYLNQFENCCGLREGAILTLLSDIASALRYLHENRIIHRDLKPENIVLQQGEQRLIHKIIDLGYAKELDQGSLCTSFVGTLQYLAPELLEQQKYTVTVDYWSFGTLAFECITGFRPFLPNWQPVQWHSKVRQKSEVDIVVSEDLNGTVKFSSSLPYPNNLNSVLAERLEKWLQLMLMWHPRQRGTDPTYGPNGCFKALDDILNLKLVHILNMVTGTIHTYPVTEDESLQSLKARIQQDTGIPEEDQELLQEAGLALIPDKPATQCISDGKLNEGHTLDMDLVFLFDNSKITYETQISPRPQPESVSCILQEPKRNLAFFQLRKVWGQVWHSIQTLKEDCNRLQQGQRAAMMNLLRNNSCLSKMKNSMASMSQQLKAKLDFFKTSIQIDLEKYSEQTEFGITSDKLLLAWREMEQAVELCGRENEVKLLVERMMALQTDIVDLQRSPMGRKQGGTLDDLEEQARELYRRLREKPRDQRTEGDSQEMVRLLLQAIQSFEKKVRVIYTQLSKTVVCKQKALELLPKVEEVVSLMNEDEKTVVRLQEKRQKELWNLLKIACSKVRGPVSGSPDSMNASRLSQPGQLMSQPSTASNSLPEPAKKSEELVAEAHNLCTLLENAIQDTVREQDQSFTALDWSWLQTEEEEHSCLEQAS

[2] = SU6656 0.015 mg/kg intratumoral every three days

Sequence of c-Src (P12931 whole entry): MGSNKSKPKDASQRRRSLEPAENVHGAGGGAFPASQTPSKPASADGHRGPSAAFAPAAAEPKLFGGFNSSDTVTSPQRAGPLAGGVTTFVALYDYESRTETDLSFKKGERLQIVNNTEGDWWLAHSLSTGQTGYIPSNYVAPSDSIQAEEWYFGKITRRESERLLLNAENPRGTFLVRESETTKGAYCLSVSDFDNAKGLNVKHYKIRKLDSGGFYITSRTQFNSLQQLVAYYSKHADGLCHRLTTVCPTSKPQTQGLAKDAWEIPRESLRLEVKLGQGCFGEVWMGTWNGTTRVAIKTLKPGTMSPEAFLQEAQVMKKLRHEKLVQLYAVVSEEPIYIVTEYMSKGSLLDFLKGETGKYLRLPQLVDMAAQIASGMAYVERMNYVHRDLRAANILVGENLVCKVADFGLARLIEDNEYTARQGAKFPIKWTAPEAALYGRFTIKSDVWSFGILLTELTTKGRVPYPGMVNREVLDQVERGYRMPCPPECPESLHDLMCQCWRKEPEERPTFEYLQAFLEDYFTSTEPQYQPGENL

CN(C)S(=O)(=O)c1ccc2c(c1)/C(=C/c1cc3c([nH]1)CCCC3)C(=O)N2 [SU6656]
EGF-induced activation/phosphorylation of c-Src (Y418) (c-Src): completely abrogated; also recorded: blocked | EGF-induced phosphorylation of β-catenin Y333 (β-catenin; GSC11 and GSC23 human primary GBM cells, SU6656 4 μM 30 min before EGF 100 ng/mL 6 h): blocked | EGF-induced Tyr phosphorylation of β-catenin (β-catenin; U87/EGFR cells, SU6656 4 μM or Abl inhibitor 0.2 μM 30 min before EGF 6 h): blocked | EGF-induced association of β-catenin with PKM2 [1]: blocked | tumor growth (U87/EGFRvIII cells; SU6656 0.015 mg/kg in 5 μL DMSO intratumoral every three days vs DMSO): significantly blocked tumor growth | cyclin D1 expression in tumor tissue (U87/EGFRvIII cells; [2]): inhibited | phosphorylation level of c-Src Y418 in tumor tissue (U87/EGFRvIII cells; [2]): reduced | phosphorylation level of β-catenin Y333 in tumor tissue (U87/EGFRvIII cells; [2]): reduced | EGF-induced nuclear accumulation/translocation of PKM2 (PKM2): only inhibition of MEK/ERK abrogated

COc1cc2ncnc(Nc3cccc(Cl)c3)c2cc1OC [AG1478]
EGF-induced nuclear accumulation/translocation of PKM2 (PKM2): abrogated | EGF-induced phosphorylation of ERK1/2 (ERK1/2): blocked | EGF-induced PKM2 upregulation/expression (PKM2 expression): blocked; also recorded: abrogated

O=C(N/N=C/c1ccc([N+](=O)[O-])cc1)c1ccc2ccccc2c1 [LASSBio-1524]
IC50 (IKKβ): 20 µM

Cc1cc(N)ccc1N=Nc1ccc(S(=O)(=O)CCOS(=O)(=O)O)cc1 [NSC 676914]
IC50 (IKKβ): 17 µM

O=C(Nc1cc(Cl)cc2c1[nH]c1cnccc12)c1cccnc1 [PS1145]
IC50 (IKKβ): 0.088 µM

C[C@]1(CO)CN(c2cc(C(=O)Nc3ccc4c(c3)-c3c(c(C(N)=O)nn3-c3ccc(F)cc3)CC4)c(Cl)cn2)C[C@@]1(C)CO [PF-184]
IC50 (IKKβ): 0.037 µM

O=C(Nc1cc(C(F)(F)F)cc(C(F)(F)F)c1)c1cc(Cl)ccc1O [IMD-0354]
IC50 (IKKβ): 0.28 to 3 µM

C[C@@H]1C[C@@H]([C@H](O)CC2CC(=O)NC(=O)C2)C(=O)[C@@H](C)C1 [cycloheximide]
EGF-induced nuclear accumulation/translocation of PKM2 (PKM2): did not inhibit | EGF-induced PKM2 upregulation/expression (PKM2 expression): inhibited

Source: US20150073033A1, “BIOMARKERS FOR CANCER CHARACTERIZATION AND TREATMENT” (Board of Regents, The University of Texas System, priority 2011, published 2015)
